# Results reported in ChEMBL document CHEMBL5465560, “Selectivity Literature for EUbOPEN Chemogenomic Library” (2024).
# Key:
# [1] = target: T1, Serine/threonine-protein kinase 3 (Homo sapiens) (UniProt Q13188); assay: Selectivity interaction (Kinase panel (KiNativ target engagement assay in Jurkat cells)) EUB0001635a STK3; format: cell-based; details: Selectivity number of off-targets 0.0, Selectivity number of targets 233.0, Source Knowledge https://www.sciencedirect.com/science/article/pii/S2451945619300674?via%3Dihub, at 1 µM
# T1 sequence (whole entry): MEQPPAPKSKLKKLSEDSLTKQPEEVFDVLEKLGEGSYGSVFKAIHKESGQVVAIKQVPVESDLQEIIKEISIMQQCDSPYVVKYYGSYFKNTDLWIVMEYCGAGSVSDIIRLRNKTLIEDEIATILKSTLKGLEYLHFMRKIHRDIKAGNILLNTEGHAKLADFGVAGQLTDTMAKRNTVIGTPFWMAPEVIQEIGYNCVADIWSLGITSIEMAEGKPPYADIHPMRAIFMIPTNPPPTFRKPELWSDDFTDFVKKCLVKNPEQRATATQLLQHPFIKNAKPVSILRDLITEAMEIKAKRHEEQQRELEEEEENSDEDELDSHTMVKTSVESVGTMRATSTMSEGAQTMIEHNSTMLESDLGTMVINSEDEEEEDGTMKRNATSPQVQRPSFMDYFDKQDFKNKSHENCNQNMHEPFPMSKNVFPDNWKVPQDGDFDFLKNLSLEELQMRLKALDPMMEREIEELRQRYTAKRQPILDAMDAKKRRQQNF
# [2] = target: Serine/threonine-protein kinase OSR1 (Homo sapiens) (UniProt O95747); assay: Selectivity interaction (Kinase panel (KiNativ target engagement assay in Jurkat cells)) EUB0001635a OXSR1; format: cell-based; details: Selectivity number of off-targets 0.0, Selectivity number of targets 233.0, Source Knowledge https://www.sciencedirect.com/science/article/pii/S2451945619300674?via%3Dihub, at 1 µM
# [3] = target: Activin receptor type-2B (Homo sapiens) (UniProt Q13705); assay: Selectivity interaction (Kinase panel (Invitrogen)) EUB0000639a ACVR2B; details: at 200 nM
# [4] = target: Ribosomal protein S6 kinase alpha-5 (Homo sapiens) (UniProt O75582); details: at 10 µM
# [5] = target: T2, Receptor-interacting serine/threonine-protein kinase 4 (Homo sapiens) (UniProt P57078); assay: Selectivity interaction (KinomeScan (DiscoverX)) EUB0000618a RIPK4; details: at 10 µM
# T2 sequence (whole entry): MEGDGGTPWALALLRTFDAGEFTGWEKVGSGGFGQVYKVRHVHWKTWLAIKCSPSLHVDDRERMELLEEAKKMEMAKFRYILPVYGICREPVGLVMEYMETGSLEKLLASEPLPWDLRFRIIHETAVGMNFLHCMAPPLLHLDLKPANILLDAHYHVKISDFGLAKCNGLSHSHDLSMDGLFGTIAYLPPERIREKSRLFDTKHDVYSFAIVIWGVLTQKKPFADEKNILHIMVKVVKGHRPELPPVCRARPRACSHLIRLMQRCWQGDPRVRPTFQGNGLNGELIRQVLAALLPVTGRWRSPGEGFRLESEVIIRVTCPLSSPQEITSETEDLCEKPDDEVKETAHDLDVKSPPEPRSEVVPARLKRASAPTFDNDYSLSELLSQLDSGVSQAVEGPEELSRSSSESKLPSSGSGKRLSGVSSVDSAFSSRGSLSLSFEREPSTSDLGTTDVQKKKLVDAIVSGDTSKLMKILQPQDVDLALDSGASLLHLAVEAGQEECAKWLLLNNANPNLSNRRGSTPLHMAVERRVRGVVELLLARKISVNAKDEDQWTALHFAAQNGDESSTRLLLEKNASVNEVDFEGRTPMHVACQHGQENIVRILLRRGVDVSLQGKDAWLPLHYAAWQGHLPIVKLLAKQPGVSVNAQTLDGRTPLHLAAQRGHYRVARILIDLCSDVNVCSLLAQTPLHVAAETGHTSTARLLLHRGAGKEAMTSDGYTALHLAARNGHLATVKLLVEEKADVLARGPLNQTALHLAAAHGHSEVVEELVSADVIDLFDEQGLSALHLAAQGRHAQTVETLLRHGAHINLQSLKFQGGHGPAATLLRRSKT
# [6] = target: Activin receptor type-2A (Homo sapiens) (UniProt P27037); assay: Selectivity interaction (KinomeScan (DiscoverX)) EUB0000607a ACVR2A; details: at 10 µM
# [7] = target: Receptor tyrosine-protein kinase erbB-4 (Homo sapiens, UniProt Q15303); assay: Selectivity interaction (KinomeScan (DiscoverX)) EUB0000607a ERBB4; details: at 10 µM
# [8] = target: Fibroblast growth factor receptor 3 (Homo sapiens, UniProt P22607); assay: Selectivity interaction (ProQinase) EUB0000171b FGFR3; details: at 5 µM
# Sequence of Fibroblast growth factor receptor 3 (P22607 23-806 limits assumed): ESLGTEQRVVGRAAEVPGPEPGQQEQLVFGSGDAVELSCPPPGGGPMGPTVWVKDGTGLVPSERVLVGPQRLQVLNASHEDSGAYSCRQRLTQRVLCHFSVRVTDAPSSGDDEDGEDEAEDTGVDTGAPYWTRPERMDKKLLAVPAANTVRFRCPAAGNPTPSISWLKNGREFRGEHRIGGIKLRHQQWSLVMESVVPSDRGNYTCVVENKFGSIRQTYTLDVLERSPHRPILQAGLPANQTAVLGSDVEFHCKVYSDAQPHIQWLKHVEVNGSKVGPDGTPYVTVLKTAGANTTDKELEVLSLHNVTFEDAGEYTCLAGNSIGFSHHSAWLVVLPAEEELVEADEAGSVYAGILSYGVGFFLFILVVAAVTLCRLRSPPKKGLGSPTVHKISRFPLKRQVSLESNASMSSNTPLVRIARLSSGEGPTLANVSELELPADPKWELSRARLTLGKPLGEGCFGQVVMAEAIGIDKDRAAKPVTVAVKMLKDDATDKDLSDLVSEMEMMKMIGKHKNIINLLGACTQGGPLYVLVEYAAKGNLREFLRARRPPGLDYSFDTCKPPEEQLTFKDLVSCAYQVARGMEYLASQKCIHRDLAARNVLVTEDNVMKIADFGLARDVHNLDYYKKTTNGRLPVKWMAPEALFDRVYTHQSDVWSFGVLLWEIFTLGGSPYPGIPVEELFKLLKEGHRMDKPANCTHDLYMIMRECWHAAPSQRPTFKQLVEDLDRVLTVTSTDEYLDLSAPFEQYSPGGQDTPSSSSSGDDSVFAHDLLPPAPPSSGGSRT
# Sequence of Receptor tyrosine-protein kinase erbB-4 (Q15303 whole entry): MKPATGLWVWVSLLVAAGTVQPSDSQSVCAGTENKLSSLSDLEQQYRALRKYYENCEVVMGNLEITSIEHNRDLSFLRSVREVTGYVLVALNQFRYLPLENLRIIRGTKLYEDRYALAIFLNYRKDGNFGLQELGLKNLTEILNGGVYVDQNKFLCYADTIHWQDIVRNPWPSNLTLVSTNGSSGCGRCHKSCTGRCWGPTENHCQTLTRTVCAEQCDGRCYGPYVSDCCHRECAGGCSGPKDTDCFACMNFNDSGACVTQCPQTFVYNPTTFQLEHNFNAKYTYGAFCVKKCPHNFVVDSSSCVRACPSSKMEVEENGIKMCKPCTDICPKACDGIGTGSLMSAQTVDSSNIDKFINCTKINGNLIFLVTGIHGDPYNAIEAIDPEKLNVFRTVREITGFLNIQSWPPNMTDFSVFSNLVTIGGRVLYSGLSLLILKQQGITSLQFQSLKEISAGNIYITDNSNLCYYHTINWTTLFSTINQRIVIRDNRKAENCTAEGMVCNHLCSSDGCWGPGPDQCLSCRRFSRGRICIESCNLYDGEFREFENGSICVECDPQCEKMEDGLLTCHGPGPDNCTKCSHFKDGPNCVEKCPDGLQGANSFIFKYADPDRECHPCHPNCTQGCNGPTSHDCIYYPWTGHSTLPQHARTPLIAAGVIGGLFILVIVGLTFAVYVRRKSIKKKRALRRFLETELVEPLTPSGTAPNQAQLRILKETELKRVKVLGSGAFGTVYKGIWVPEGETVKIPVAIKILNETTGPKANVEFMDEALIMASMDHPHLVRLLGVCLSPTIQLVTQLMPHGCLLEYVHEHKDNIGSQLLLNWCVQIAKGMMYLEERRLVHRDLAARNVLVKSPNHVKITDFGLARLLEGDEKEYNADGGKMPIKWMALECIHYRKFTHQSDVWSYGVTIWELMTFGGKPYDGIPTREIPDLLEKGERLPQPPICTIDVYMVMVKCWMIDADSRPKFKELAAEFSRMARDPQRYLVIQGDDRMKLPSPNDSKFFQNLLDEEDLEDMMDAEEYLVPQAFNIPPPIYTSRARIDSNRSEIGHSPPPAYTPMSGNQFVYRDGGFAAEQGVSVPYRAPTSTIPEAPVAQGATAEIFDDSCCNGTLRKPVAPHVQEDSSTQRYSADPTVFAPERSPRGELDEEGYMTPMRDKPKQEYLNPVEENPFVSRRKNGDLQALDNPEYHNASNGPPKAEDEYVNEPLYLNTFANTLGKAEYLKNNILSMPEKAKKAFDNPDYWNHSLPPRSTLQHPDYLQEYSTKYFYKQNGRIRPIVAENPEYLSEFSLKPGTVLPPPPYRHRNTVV
# Sequence of Activin receptor type-2A (Homo sapiens) (P27037 whole entry): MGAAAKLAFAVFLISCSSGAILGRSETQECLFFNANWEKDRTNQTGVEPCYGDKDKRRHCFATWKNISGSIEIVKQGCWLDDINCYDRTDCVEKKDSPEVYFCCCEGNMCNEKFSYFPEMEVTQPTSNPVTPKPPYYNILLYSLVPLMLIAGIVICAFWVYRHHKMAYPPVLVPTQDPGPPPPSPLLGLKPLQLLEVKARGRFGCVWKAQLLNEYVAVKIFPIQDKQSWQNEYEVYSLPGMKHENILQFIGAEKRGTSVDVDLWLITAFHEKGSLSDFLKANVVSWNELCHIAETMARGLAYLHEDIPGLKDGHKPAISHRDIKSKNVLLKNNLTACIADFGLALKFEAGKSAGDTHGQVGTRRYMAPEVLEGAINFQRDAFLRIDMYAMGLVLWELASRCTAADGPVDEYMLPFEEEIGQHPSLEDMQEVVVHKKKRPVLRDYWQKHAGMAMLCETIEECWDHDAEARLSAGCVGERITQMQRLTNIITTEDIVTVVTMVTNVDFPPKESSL
# Sequence of Activin receptor type-2B (Homo sapiens) (Q13705 whole entry): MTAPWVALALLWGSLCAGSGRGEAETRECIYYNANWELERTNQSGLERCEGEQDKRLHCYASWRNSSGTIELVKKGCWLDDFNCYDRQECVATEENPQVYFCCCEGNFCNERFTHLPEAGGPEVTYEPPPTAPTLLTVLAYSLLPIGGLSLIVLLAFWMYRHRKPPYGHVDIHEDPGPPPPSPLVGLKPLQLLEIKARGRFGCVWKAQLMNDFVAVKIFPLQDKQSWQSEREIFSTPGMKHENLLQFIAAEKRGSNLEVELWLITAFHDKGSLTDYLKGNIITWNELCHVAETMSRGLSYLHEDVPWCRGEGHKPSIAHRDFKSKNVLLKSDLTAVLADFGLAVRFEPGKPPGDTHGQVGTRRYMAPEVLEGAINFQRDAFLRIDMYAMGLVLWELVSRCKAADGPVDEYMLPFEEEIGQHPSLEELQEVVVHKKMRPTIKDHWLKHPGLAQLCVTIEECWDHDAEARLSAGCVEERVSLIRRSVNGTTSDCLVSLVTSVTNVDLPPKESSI
# Sequence of Ribosomal protein S6 kinase alpha-5 (Homo sapiens) (O75582 whole entry, looked up): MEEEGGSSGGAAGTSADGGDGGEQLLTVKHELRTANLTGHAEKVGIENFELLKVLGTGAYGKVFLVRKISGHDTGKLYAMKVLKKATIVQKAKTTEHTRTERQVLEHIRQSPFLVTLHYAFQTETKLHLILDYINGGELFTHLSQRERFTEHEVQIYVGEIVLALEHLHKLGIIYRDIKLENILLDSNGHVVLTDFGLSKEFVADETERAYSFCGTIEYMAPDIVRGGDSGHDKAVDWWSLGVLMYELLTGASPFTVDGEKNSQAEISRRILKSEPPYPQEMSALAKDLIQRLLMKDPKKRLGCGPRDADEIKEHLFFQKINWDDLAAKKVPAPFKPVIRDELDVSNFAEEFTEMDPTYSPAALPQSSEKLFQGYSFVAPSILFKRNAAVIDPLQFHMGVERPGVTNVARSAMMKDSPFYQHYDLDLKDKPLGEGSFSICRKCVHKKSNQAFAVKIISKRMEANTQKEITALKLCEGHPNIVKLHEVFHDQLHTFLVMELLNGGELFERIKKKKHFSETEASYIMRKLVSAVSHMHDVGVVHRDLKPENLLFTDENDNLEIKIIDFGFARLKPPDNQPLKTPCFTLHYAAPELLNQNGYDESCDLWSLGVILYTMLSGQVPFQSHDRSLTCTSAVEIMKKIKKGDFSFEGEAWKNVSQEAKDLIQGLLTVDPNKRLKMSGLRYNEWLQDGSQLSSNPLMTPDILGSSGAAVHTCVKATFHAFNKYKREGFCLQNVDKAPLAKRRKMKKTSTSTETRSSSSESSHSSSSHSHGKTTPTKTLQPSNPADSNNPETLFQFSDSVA
# Sequence of Serine/threonine-protein kinase OSR1 (Homo sapiens) (O95747 2-527 limits assumed): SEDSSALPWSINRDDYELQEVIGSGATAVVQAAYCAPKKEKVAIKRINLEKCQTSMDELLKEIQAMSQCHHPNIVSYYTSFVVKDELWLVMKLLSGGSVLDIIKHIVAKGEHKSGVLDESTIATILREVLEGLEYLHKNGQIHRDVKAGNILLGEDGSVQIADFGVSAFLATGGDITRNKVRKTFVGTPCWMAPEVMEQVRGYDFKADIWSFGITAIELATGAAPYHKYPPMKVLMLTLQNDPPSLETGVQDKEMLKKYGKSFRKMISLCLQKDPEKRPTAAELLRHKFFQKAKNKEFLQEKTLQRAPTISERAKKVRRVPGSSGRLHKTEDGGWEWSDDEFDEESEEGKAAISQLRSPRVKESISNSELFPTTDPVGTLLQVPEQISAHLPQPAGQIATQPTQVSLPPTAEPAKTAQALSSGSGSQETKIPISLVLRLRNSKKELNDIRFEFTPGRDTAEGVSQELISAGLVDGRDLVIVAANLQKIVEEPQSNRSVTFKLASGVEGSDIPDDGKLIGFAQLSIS
compound,measurement,setting,value
C=CC(=O)Nc1ccc(C(=O)Nc2[nH]nc3c2CN(C(=O)N[C@H](CN(C)C)c2ccccc2)C3(C)C)cc1,% of engagement,[1],1%
same,% of engagement,[2],2.6%
CC[C@@H]1[C@H](F)C(=O)N[C@@H]1COc1nccc2cc(C(N)=O)c(OC)cc12 [ZIMLOVISERTIB],% of inhibition,[3],5.32%
COCC(=O)NC/C=C/c1ccc2ncnc(Nc3ccc(Oc4ccc(C)nc4)c(C)c3)c2c1 [CP-724714],% of control,[4],99%
O[C@H]1CC[C@H](Nc2ncc3nc(Nc4c(F)cc(F)cc4F)n([C@H]4CCOC4)c3n2)CC1,% of control,[5],88%
CNC(=O)Nc1ccc(-c2nc(N3CC4CCC(C3)O4)c3cnn(C4CCC5(CC4)OCCO5)c3n2)cc1,% of control,[6],78%
same,% of control,[7],100%
C=CC(=O)Nc1cccc(C(=O)Nc2ccc(Nc3cc(-c4[nH]c(SC)nc4C)ccn3)cc2)c1,% of control,[8],91%
